US5206260A, “Hexahydropyrrolo[2,3-b]indole derivatives” (priority 1991, dated 1993)

How the values were obtained:
[1] = Metabolites of heptylphysostigmine (dog urine after oral dosing; canine liver microsomes); type: in vivo; conditions: mammalian metabolites
Experimental: The foregoing metabolites were originally isolated from dog urine following oral dosing with trimethyl-1,3a,8-hexahydro-1,2,3,3a,8,8a-pyrrol-[2,3-b]indole-5(3aS,8aR)heptylcarbamate at dosage levels of 1 mg/kg/day. Some of these compounds were also isolated from an incubation mixture of canine liver microsomes and trimethyl-1,3a,8-hexahydro-1,2,3,3a,8,8a-pyrrol[2,3-b]indole-5(3aS,8aR)-heptylcarbamate at a concentration of 10 μM in the presence of MgCl2 and NADPH in a buffer of approximately neutral pH at approximately 30°-40° C. The compounds were isolated from the biological matrix by selective solid phase or solvent extraction and purified by liquid chromatography (LC) using different mobile phase conditions. The procedures and the results of these experiments are noted in Examples 1-3.
Incubation of heptylphysostigmine with dog liver microsomes or 9,000×g supernatant fractions was performed to generate metabolites. The incubation mixture contained 100 μmoles of potassium phosphate, pH 7.4, 3 μmoles of MgCl2, 0.5 μmole of NADPH, 1 mg microsomal or 4 mg S9 protein and 10 nmols of ^3 H-heptylphysostigmine in a final volume of 1.0 ml. The incubations were carried out at 37° C. and 120 rpm for 10, 30 or 60 minutes. At the end of the incubation period, metabolites were extracted with a 2:1 mixture of ethyl acetate and acetone. […]

[2] = background statement, cited from earlier work
[3] = Somani et al., 1989; cited from earlier work

| SMILES | metabolites discovered [1] | half-life of effect [2] | side-effects ([2]; particularly towards the digestive system) | metabolites reported [3] |
| --- | --- | --- | --- | --- |
| CCCCCCCNC(=O)Oc1ccc2c(c1)[C@]1(C)CCN(C)[C@@H]1N2C [heptylphysostigmine, trimethyl-1,3a,8-hexahydro-1,2,3,3a,8,8a-pyrrol[2,3-b]indole-5(3aS,8aR) heptylcarbamate] | eseroline and eseroline glucuronide were also discovered among the mammalian metabolites | – | – | – |
| CNC(=O)Oc1ccc2c(c1)[C@]1(C)CCN(C)[C@@H]1N2C [physostigmine, trimethyl-1,3a,8-hexahydro-1,2,3,3a,8,8a-pyrrol[2,3-b]indole-5(3aS,8aR)methylcarbamate] | – | short half-life of effect | severe dose-limiting side-effects | metabolized to eseroline and at least three other unknown metabolites |
